Test results as given in PMC10648937, “Drug distribution and efficacy of the DprE1 inhibitor BTZ-043 in the C3HeB/FeJ mouse tuberculosis model” (Antimicrobial Agents and Chemotherapy, 2023).
Read-outs that look alike come from different tables or passages of the source.

Assays:
[1] = system: Mtb Erdman; assay: Broth microdilution MIC (Alamar Blue endpoint), with and without 4% huSA (serum-shift assay); conditions: for MIC: Mycobacterium tuberculosis, ERDMAN
[2] = system: Mtb; parameters: method as in PMID 34370580; conditions: C3HeB/FeJ mice, 8 weeks (5 of 7 days per week), cited from earlier work
[3] = system: non-replicating Mtb in rabbit caseum; parameters: method as in PMID 34370580; conditions: similarly reported previously; cited from earlier work
[4] = system: Mtb Erdman; assay: Semi-quantitative MBC (sqMBC) assay; type: cell-based, Mycobacterium tuberculosis; conditions: M. tuberculosis Erdman; for sqMBC: 10 d incubation, 99% (2-log10) CFU reduction of inoculum; for sqMBC + huSA: with 4% huSA

Structure (SMILES) | MIC [1] [µg/mL] | MIC ([1]; read-out: MIC + huSA) [µg/mL] | average lung CFU reduction compared to untreated controls ([2]; 100 and 200 mg/kg BID) [log10] | activity against non-replicating Mtb in rabbit caseum MBC assay [3] | sqMBC [4] [µg/mL] | sqMBC + huSA [4] [µg/mL] | shift in MIC in the presence of huSA ([1]; physiologic levels (4%) of huSA) [fold] | average lung CFU reduction compared to untreated controls ([2]; 50 and 100 mg/kg QD) [log10]
COc1ncnc(Cn2cc(C(=O)NCCO)c3ncc(C)cc32)c1C [TBA-7371] | 0.5 | 1 | 1.5 | lacked appreciable activity | 1 | 1 | – | –
O=c1nc(N2CCN(CC3CCCCC3)CC2)sc2c([N+](=O)[O-])cc(C(F)(F)F)cc12 [PBTZ169] | ≤ 0.002 | 0.016 | – | lacked appreciable activity | ≤ 0.002 | 0.016 | 8 | 1.5
COc1c(N2C[C@@H]3CCCN[C@@H]3C2)c(F)cc2c(=O)c(C(=O)O)cn(C3CC3)c12 [moxifloxacin] | 0.06 | – | – | – | 0.125 | – | – | –
